Test results from patent EP2638113B1, “THIOPHENE AZO DYES AND LAUNDRY CARE COMPOSITIONS CONTAINING THE SAME” (Milliken & Company, priority 2010, dated 2011).

Assay: Aqueous partition value of a dye (water/1-octanol partitioning, absorbance at λmax)
Type: physicochemical
Conditions: Aqueous Partition Value (APV) = (Af/Ai) × 100%, deionized water / 1-octanol, 10.0 mL each
Description: • I. Method for Determining the Aqueous Partition Value of a Dye Dissolve in deionized water to a final volume of 10.0 mL an amount of dye sufficient to provide a solution absorbance value between 0.25 and 1.0, said absorbance being determined at the dye λmax between 400 nm and 750 nm, using a cuvette with 1.0 cm path length. Measure the absorbance of the sample at the dye λmax in a UV/Vis spectrophotometer, then transfer the entire 10.0 mL solution to a 50.0 mL plastic centrifuge tube. Add 10.0 mL of 1-octanol, cap the tube, and mix vigorously for 30 seconds using a Vortex™ mixer. Leave the tube standing undisturbed until the layers cleanly phase separate. […] Analyze the solution as before, and quantify the absorbance loss at λmax as "% of Dye Remaining in Aqueous Layer" as detailed below: % of Dye Remaining in Aqueous Layer = Aqueous Partition Value (APV) = (Af/Ai) × 100% [formula] wherein Ai is the initial solution absorbance at λmax and Af is the final solution absorbance at λmax. • II. […] After such washing step separately rinse the swatches in tap water and air dry the swatches in the dark. • e.) After rinsing and drying each swatch, the hueing efficiency, DE*eff, of the dye is assessed by determining the L*, a*, and b* value measurements of each swatch using a Hunter LabScan XE reflectance spectrophotometer with D65 illumination, 10° observer and UV filter excluded. […]

% Dye in Water Layer [%] | Structure (SMILES)
3 | CCN(CCOCCOCCOCCOCC[N+](C)(C)CCCS(=O)(=O)[O-])c1ccc(/N=N/c2sc(C#N)c(C)c2C#N)c(C)c1 [Example 15]
20 | CCN(CCOCCOCCOCCOCCn1cc[n+](C)c1)c1ccc(/N=N/c2sc(C#N)c(C)c2C#N)c(C)c1 [Example 13]
